Literature values in patent publication US20090202442A1, “Enerceutical activation of the alternative cellular energy (ACE) pathway in therapy of diseases” (priority 2008, published 2009).

System: herpes simplex virus (HSV), herpes zoster virus (HZV) and human papillomavirus (HPV) infections

## Cc1cc2nc3ccc(N(C)C)cc3nc2cc1N.Cl [neutral red]
Neutral red dye triggered UV fluorescence, HSV, HZV, HPV lesions
  healing of active skin lesions: successfully used in expediting the healing
Patients with prior history of recurrent herpes, treated when no active lesion present
  future outbreaks of recurrent herpes: successfully used in preventing future outbreaks
